Literature values, collected in patent publication US12653950B2, “Predictive biological homeostasis” (priority 2020, dated 2026).

What was measured:
[1] = in vivo
NF-κB = conditions: pro-inflammatory signaling pathway involved in Lyme-induced inflammation
[2] = not given; remark: listed apart in the source
Borrelia burgdorferi = conditions: one animal study (Pothineni et al. 2020)

## Nc1nc2c(ncn2COCCO)c(=O)[nH]1 [Acyclovir]
[1]
  toxic side effects in the kidneys: toxic side effects in the kidneys

## COc1cc(/C=C/C(=O)CC(=O)/C=C/c2ccc(O)c(OC)c2)ccc1O [Curcumin]
NF-κB
  activation of NF-κB: blocking the activation

## O=c1c(O)c(-c2ccc(O)c(O)c2)oc2cc(O)cc(O)c12 [Quercetin]
other
  solubility in water: poorly soluble
[2]
  stability in physiological systems: unstable

## CC1(C)S[C@@H]2[C@H](NC(=O)[C@H](NC(=O)N3CCNC3=O)c3ccccc3)C(=O)N2[C@H]1C(=O)O [azlocillin]
Borrelia burgdorferi
  killing of disease-causing bacteria Borrelia burgdorferi: completely kills off
